± gives the standard deviation of the averaged measurements.
What was measured:
Conditions in all cases: 72 h
HL-60 [1] = assay: area under dose-response curve (viability, 1 nM-10 uM) (fraction (0-1)); higher = more sensitive
How it was run: (§1)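 Four-parameter log-logistic fits in drc and PharmacoGx supplied area under the curve where it is given. Underlying viability came from CellTiter-Glo, normalised to DMSO and proteasome-inhibitor wells, with the proteasome inhibitor at 10 μM. HL-60 cells in RPMI 1640 plus 10% FBS had been rescreened against the full library at five tenfold concentrations of 1–10,000 nM, in duplicate on 384-well plates, with DMSO or 100 nM of one of three metabolic inhibitors, for 72 h at 37 °C, 5% CO2.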

HEL [2] = system: HEL
How it was run: (§2)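 The IC50 was derived from log-logistic dose–response fitting. Each of fifteen myeloid leukaemia cell lines, seeded in RPMI 1640 within its linear growth range, was exposed in 384-well plates to five tenfold doses (1 to 10,000 nM) in duplicate for 72 h at 37 °C and 5% CO2. Luminescent ATP viability readings were normalised to vehicle and to a positive control at 10 µM before four-parameter curve fitting.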

NOMO-1 [3] = system: NOMO-1
How it was run: as §2

BV-173 [4] = system: BV-173
How it was run: as §2

MOLM-13 = system: MOLM-13
How it was run: as §2

KG-1 = system: KG-1
How it was run: as §2

THP-1 = system: THP-1
How it was run: as §2

KCL-22 [5] = system: KCL-22
How it was run: as §2

MV4-11 = system: MV4-11
How it was run: as §2

HL-60 [6] = system: HL-60
How it was run: as §2

KU-812 [7] = system: KU-812
How it was run: as §2

Mono-Mac-6 [8] = system: Mono-Mac-6
How it was run: as §2

ML-2 [9] = system: ML-2
How it was run: as §2

LAMA-84 [10] = system: LAMA-84
How it was run: as §2

K-562 [11] = system: K-562
How it was run: as §2

SHI-1 [12] = system: SHI-1
How it was run: as §2

HL-60 [13] = assay: cell viability (% survival relative to DMSO control); higher = less cytotoxic
How it was run: as §1

HEL [14] = assay: cell viability (% survival relative to DMSO control, bortezomib = 0%); higher = less cytotoxic
How it was run: (§3)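 Reported values are percent survival from duplicate wells, averaged. Fifteen myeloid leukaemia cell lines were treated in 384-well plates with compounds at 1, 10, 100, 1000 or 10000 nM for 72 h at 37 °C in 5% CO2. Signals from CellTiter-Glo luminescence were scaled with vehicle as 100% and a 10 µM positive control as 0%.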

NOMO-1 [15] = assay: as above
How it was run: as §3

BV-173 [16] = assay: as above
How it was run: as §3

KCL-22 [17] = assay: as above
How it was run: as §3

HL-60 [18] = assay: as above
How it was run: as §3

KU-812 [19] = assay: as above
How it was run: as §3

Mono-Mac-6 [20] = assay: as above
How it was run: as §3

ML-2 [21] = assay: as above
How it was run: as §3

LAMA-84 [22] = assay: as above
How it was run: as §3

K-562 [23] = assay: as above
How it was run: as §3

SHI-1 [24] = assay: as above
How it was run: as §3

COc1ccc(C(=O)Nc2c(Cl)cncc2Cl)cc1OC1CCCC1 [Piclamilast]
area under dose-response curve (HL-60 [1]; co-treatment: AZD3965 100 nM): < 0.0301
area under dose-response curve (HL-60 [1]; co-treatment: DMSO vehicle): < 0.0301
area under dose-response curve (HL-60 [1]; co-treatment: GSK2194069 100 nM): < 0.0301
area under dose-response curve (HL-60 [1]; co-treatment: pictilisib 100 nM): < 0.0301
IC50 (cell viability) (HEL [2]): > 10 µM
IC50 (cell viability) (NOMO-1 [3]): > 10 µM
IC50 (cell viability) (BV-173 [4]): > 10 µM
IC50 (cell viability) (MOLM-13): > 10 µM
IC50 (cell viability) (KG-1): > 10 µM
IC50 (cell viability) (THP-1): > 10 µM
IC50 (cell viability) (KCL-22 [5]): > 10 µM
IC50 (cell viability) (MV4-11): > 10 µM
IC50 (cell viability) (HL-60 [6]): > 10 µM
IC50 (cell viability) (KU-812 [7]): > 10 µM
IC50 (cell viability) (Mono-Mac-6 [8]): > 10 µM
IC50 (cell viability) (ML-2 [9]): > 10 µM
IC50 (cell viability) (LAMA-84 [10]): > 10 µM
IC50 (cell viability) (K-562 [11]): > 10 µM
IC50 (cell viability) (SHI-1 [12]): > 10 µM
cell viability (HL-60 [13]; 0.001 µM, co-treatment: AZD3965 100 nM): 104 ± 0.16%
cell viability (HL-60 [13]; 0.001 µM, co-treatment: DMSO vehicle): 101 ± 4.7%
cell viability (HL-60 [13]; 0.001 µM, co-treatment: GSK2194069 100 nM): 101.3 ± 0.13%
cell viability (HL-60 [13]; 0.001 µM, co-treatment: pictilisib 100 nM): 107 ± 1.1%
cell viability (HL-60 [13]; 0.01 µM, co-treatment: AZD3965 100 nM): 104 ± 3.2%
cell viability (HL-60 [13]; 0.01 µM, co-treatment: DMSO vehicle): 100.9 ± 0.19%
cell viability (HL-60 [13]; 0.01 µM, co-treatment: GSK2194069 100 nM): 100 ± 4.4%
cell viability (HL-60 [13]; 0.01 µM, co-treatment: pictilisib 100 nM): 107 ± 3.4%
cell viability (HL-60 [13]; 0.1 µM, co-treatment: AZD3965 100 nM): 95.5 ± 6.8%
cell viability (HL-60 [13]; 0.1 µM, co-treatment: DMSO vehicle): 98.4 ± 1.4%
cell viability (HL-60 [13]; 0.1 µM, co-treatment: GSK2194069 100 nM): 98.8 ± 2%
cell viability (HL-60 [13]; 0.1 µM, co-treatment: pictilisib 100 nM): 96.4 ± 8.2%
cell viability (HL-60 [13]; 1 µM, co-treatment: AZD3965 100 nM): 105 ± 6.2%
cell viability (HL-60 [13]; 1 µM, co-treatment: DMSO vehicle): 97.54 ± 0.89%
cell viability (HL-60 [13]; 1 µM, co-treatment: GSK2194069 100 nM): 97.1 ± 1.4%
cell viability (HL-60 [13]; 1 µM, co-treatment: pictilisib 100 nM): 95.35 ± 0.29%
cell viability (HL-60 [13]; 10 µM, co-treatment: AZD3965 100 nM): 107 ± 5.9%
cell viability (HL-60 [13]; 10 µM, co-treatment: DMSO vehicle): 104.6 ± 0.65%
cell viability (HL-60 [13]; 10 µM, co-treatment: GSK2194069 100 nM): 109.3 ± 0.53%
cell viability (HL-60 [13]; 10 µM, co-treatment: pictilisib 100 nM): 106 ± 11%
cell viability (HEL [14]; 1 nM): 95.3%
cell viability (HEL [14]; 10 nM): 108%
cell viability (HEL [14]; 100 nM): 102%
cell viability (HEL [14]; 1000 nM): 119%
cell viability (HEL [14]; 10000 nM): 109%
cell viability (NOMO-1 [15]; 1 nM): 87.1%
cell viability (NOMO-1 [15]; 10 nM): 104%
cell viability (NOMO-1 [15]; 100 nM): 94.6%
cell viability (NOMO-1 [15]; 1000 nM): 97.1%
cell viability (NOMO-1 [15]; 10000 nM): 110%
cell viability (BV-173 [16]; 1 nM): 86.3%
cell viability (BV-173 [16]; 10 nM): 107%
cell viability (BV-173 [16]; 100 nM): 92.1%
cell viability (BV-173 [16]; 1000 nM): 114%
cell viability (BV-173 [16]; 10000 nM): 99.7%
cell viability (KCL-22 [17]; 1 nM): 95.3%
cell viability (KCL-22 [17]; 10 nM): 101%
cell viability (KCL-22 [17]; 100 nM): 92.7%
cell viability (KCL-22 [17]; 1000 nM): 102%
cell viability (KCL-22 [17]; 10000 nM): 108%
cell viability (HL-60 [18]; 1 nM): 87.1%
cell viability (HL-60 [18]; 10 nM): 103%
cell viability (HL-60 [18]; 100 nM): 65.2%
cell viability (HL-60 [18]; 1000 nM): 87.5%
cell viability (HL-60 [18]; 10000 nM): 115%
cell viability (KU-812 [19]; 1 nM): 91.4%
cell viability (KU-812 [19]; 10 nM): 94.6%
cell viability (KU-812 [19]; 100 nM): 90%
cell viability (KU-812 [19]; 1000 nM): 105%
cell viability (KU-812 [19]; 10000 nM): 99.1%
cell viability (Mono-Mac-6 [20]; 1 nM): 93.6%
cell viability (Mono-Mac-6 [20]; 10 nM): 107%
cell viability (Mono-Mac-6 [20]; 100 nM): 80.6%
cell viability (Mono-Mac-6 [20]; 1000 nM): 100%
cell viability (Mono-Mac-6 [20]; 10000 nM): 87.7%
cell viability (ML-2 [21]; 1 nM): 84.4%
cell viability (ML-2 [21]; 10 nM): 104%
cell viability (ML-2 [21]; 100 nM): 102%
cell viability (ML-2 [21]; 1000 nM): 88.2%
cell viability (ML-2 [21]; 10000 nM): 110%
cell viability (LAMA-84 [22]; 1 nM): 87.5%
cell viability (LAMA-84 [22]; 10 nM): 114%
cell viability (LAMA-84 [22]; 100 nM): 91.2%
cell viability (LAMA-84 [22]; 1000 nM): 110%
cell viability (LAMA-84 [22]; 10000 nM): 103%
cell viability (K-562 [23]; 1 nM): 90.5%
cell viability (K-562 [23]; 10 nM): 111%
cell viability (K-562 [23]; 100 nM): 90.7%
cell viability (K-562 [23]; 1000 nM): 108%
cell viability (K-562 [23]; 10000 nM): 83.1%
cell viability (SHI-1 [24]; 1 nM): 94.1%
cell viability (SHI-1 [24]; 10 nM): 105%
cell viability (SHI-1 [24]; 100 nM): 106%
cell viability (SHI-1 [24]; 1000 nM): 99.3%
cell viability (SHI-1 [24]; 10000 nM): 113%
